# In patent US9796733B2, “Imidazo-pyrazine derivatives useful as soluble guanylate cyclase activators” (Merck Sharp & Dohme Corp., priority 2014, dated 2017):
# Assays:
# [1] = tested on: Spontaneously hypertensive rats (SHR); test: Acute efficacy in spontaneously hypertensive rats (SHR): telemetry blood pressure lowering after a single oral dose; format: in vivo, rat
# Method in brief: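 Values are the maximum peak fall in systolic pressure after one oral dose (mpk), computed hourly against baseline from a vehicle dose given the day before. Rats were conscious, male, spontaneously hypertensive, with femoral-aortic telemetry recording 30 s every 10 min, 14 days post-surgery.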
# sGC α1/β1 heterodimer = target: T1, sGC α1/β1 heterodimer (Homo sapiens, UniProt Q02108+Q02153); test: Cell-based sGC functional assay (CASA assay): cGMP generation in CHO-K1/sGC cells, HTRF detection; conditions: for Emax: CHO-K1, percent activation relative to standard Compound A in CHO-K1/sGC cells, read-out: % Act.; for EC50: inflection point (IP) of cGMP generation in CHO-K1/sGC cells, 4P fit, activity expressed as percentage of Compound A
# T1 construct: expressed in transfected cells; host or cells: CHO-K1 (clone #7, CHO-K1/sGC)
# T1 sequence (Q02108 1-690): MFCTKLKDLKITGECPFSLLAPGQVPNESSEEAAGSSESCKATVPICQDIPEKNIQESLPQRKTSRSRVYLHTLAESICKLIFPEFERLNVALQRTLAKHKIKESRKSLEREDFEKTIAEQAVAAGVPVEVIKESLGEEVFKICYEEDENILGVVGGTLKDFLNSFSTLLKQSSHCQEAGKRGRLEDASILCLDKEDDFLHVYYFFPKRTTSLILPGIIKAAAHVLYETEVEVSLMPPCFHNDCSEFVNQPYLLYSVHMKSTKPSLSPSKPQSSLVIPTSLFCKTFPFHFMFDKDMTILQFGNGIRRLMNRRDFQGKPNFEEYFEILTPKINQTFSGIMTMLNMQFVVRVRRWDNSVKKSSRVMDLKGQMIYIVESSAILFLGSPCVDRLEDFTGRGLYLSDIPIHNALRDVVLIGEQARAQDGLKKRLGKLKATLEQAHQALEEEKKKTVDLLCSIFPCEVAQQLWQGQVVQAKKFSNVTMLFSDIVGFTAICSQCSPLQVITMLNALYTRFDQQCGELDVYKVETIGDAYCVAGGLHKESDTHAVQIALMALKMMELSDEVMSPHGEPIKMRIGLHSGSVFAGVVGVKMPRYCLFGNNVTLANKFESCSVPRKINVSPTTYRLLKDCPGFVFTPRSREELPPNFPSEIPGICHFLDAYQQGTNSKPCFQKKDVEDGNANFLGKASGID
# T1 sequence (Q02153 1-619): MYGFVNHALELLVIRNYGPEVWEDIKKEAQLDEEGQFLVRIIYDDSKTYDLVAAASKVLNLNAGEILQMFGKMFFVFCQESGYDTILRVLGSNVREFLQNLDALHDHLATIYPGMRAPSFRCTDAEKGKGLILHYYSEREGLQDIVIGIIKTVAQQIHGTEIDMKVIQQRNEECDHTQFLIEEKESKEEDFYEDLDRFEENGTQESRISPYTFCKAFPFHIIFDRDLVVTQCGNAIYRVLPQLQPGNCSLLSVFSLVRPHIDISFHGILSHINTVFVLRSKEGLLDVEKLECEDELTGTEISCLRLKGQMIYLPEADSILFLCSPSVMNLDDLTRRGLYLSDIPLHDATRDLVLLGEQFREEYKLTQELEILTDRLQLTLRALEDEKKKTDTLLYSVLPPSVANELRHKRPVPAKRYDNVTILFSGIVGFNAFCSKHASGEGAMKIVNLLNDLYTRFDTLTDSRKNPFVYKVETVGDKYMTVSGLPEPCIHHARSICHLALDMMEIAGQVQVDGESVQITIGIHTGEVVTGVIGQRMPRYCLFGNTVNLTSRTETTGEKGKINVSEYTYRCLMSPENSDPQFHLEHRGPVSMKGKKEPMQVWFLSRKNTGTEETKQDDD
# Method in brief: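 cGMP was quantified by HTRF after 1 hr, 37° C exposure of thawed CHO-K1 cells expressing sGC α1/β1 to compound, with or without 1 μM DETA-NO. IBMX (0.5 mM) blocked cGMP breakdown, and DMSO was 2.5% final. Percent of standard Compound A's maximal cGMP was fitted (4P) for inflection point.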
SMILES,Emax (sGC α1/β1 heterodimer),EC50 (sGC α1/β1 heterodimer),"Maximum peak decrease of systolic blood pressure (SBP) in SHR, Cat. ([1]; P.O. 0.3 mpk)","Maximum peak decrease of systolic blood pressure (SBP) in SHR, Cat. ([1]; P.O. 1.0 mpk)","Maximum peak decrease of systolic blood pressure (SBP) in SHR, Cat. ([1]; P.O. 3.0 mpk)"
"CC1(C)C(=O)Nc2nc(-c3cn4ccnc4c(Cc4ccccc4F)n3)nc(N)c21 [Example 70, 4-amino-2-(8-(2-fluorobenzyl)imidazo[1,2-a]pyrazin-6-yl)-5,5-dimethyl-5H-pyrrolo[2,3-d]pyrimidin-6(7H)-one]",109%,21 nM,B (Category B=SBP in SHRs 20-40 mmHg),–,–
"CC1(C)C(=O)Nc2nc(-c3cn4ccnc4c(Cc4cccc(F)c4)n3)nc(N)c21 [Example 71, 4-amino-2-(8-(3-fluorobenzyl)imidazo[1,2-a]pyrazin-6-yl)-5,5-dimethyl-5H-pyrrolo[2,3-d]pyrimidin-6(7H)-one]",109%,44 nM,–,C (Category C=SBP in SHRs>40 mmHg),–
"CC1(C)C(=O)Nc2nc(-c3cn4ccnc4c(Cc4ccccc4)n3)nc(N)c21 [Example 76, 4-amino-2-(8-benzylimidazo[1,2-a]pyrazin-6-yl)-5,5-dimethyl-5H-pyrrolo[2,3-d]pyrimidin-6(7H)-one]",119%,91 nM,–,B (Category B=SBP in SHRs 20-40 mmHg),–
"CCC1(C2CC2)C(=O)Nc2nc(-c3cn4ccnc4c(CCC(F)(F)C(F)(F)F)n3)nc(N)c21 (stereo not drawn) [Example 86B, 4-amino-5-cyclopropyl-5-ethyl-2-(8-(3,3,4,4,4-pentafluorobutyl)imidazo [1,2-a]pyrazin-6-yl)-5H-pyrrolo[2,3-d]pyrimidin-6(7H)-one]",102%,201 nM,–,–,A (Category A=SBP in SHRs<20 mmHg)
"CC1(c2ccccc2)C(=O)Nc2nc(-c3cn4ccnc4c(Cc4c(F)ccc(F)c4F)n3)nc(N)c21 (stereo not drawn) [Example 100B, 4-amino-5-methyl-5-phenyl-2-(8-(2,3,6-trifluorobenzyl)imidazo[1,2-a]pyrazin-6-yl)-5H-pyrrolo[2,3-d]pyrimidin-6(7H)-one]",96%,13 nM,A (Category A=SBP in SHRs<20 mmHg),–,–
"CC1(c2ccc(F)cc2)C(=O)Nc2nc(-c3cn4ccnc4c(-c4ccccc4)n3)nc(N)c21 (stereo not drawn) [Example 112A, 4-amino-5-(4-fluorophenyl)-5-methyl-2-(8-phenylimidazo[1,2-a]pyrazin-6-yl)-5H-pyrrolo[2,3-d]pyrimidin-6(7H)-one]",89%,289 nM,–,–,B (Category B=SBP in SHRs 20-40 mmHg)
"CC1(c2ccc(F)cc2)C(=O)Nc2nc(-c3cn4ccnc4c(CC4CCC4)n3)nc(N)c21 (stereo not drawn) [Example 114A, 4-amino-2-(8-(cyclobutylmethyl)imidazo [1,2-a]pyrazin-6-yl)-5-(4-fluorophenyl)-5-methyl-5H-pyrrolo[2,3-d]pyrimidin-6(7H)-one]",94%,57 nM,C (Category C=SBP in SHRs>40 mmHg),–,–
"CC1(c2ccc(F)cn2)C(=O)Nc2nc(-c3cn4ccnc4c(CC4CCC4)n3)nc(N)c21 (stereo not drawn) [Example 115B, 4-amino-2-(8-(cyclobutylmethyl)imidazo [1,2-a]pyrazin-6-yl)-5-(5-fluoropyridin-2-yl)-5-methyl-5H-pyrrolo[2,3-d]pyrimidin-6(7H)-one]",111%,14 nM,C (Category C=SBP in SHRs>40 mmHg),–,–
"CC1(c2ccc(Cl)cc2)C(=O)Nc2nc(-c3cn4ccnc4c(CC4CCC4)n3)nc(N)c21 (stereo not drawn) [Example 118A, 4-amino-5-(4-chlorophenyl)-2-(8-(cyclobutylmethyl)imidazo [1,2-a]pyrazin-6-yl)-5-methyl-5H-pyrrolo[2,3-d]pyrimidin-6(7H)-one]",76%,33 nM,C (Category C=SBP in SHRs>40 mmHg),–,–
"CCCc1nc(-c2nc(N)c3c(n2)NC(=O)C3(C)c2ccc(Cl)c(F)c2)cn2ccnc12 (stereo not drawn) [Example 124B, 4-amino-5-(4-chloro-3-fluorophenyl)-5-methyl-2-(8-propylimidazo[1,2-a]pyrazin-6-yl)-5H-pyrrolo[2,3-d]pyrimidin-6(7H)-one]",103%,34 nM,B (Category B=SBP in SHRs 20-40 mmHg),–,–

# More lines, main results first:
Emax (sGC α1/β1 heterodimer),EC50 (sGC α1/β1 heterodimer),SMILES,"Maximum peak decrease of systolic blood pressure (SBP) in SHR, Cat. ([1]; P.O. 0.3 mpk)","Maximum peak decrease of systolic blood pressure (SBP) in SHR, Cat. ([1]; P.O. 1.0 mpk)","Maximum peak decrease of systolic blood pressure (SBP) in SHR, Cat. ([1]; P.O. 3.0 mpk)"
94%,107 nM,"CCCc1nc(-c2nc(N)c3c(n2)NC(=O)C3(C)c2ccc(Cl)cn2)cn2ccnc12 (stereo not drawn) [Example 129A, 4-amino-5-(5-chloropyridin-2-yl)-5-methyl-2-(8-propylimidazo[1,2-a]pyrazin-6-yl)-5H-pyrrolo[2,3-d]pyrimidin-6(7H)-one]",–,B (Category B=SBP in SHRs 20-40 mmHg),–
88%,178 nM,"CCCc1nc(-c2nc(N)c3c(n2)NC(=O)C3(C)c2ccc(C(F)(F)F)cc2)cn2ccnc12 (stereo not drawn) [Example 131B, 4-amino-5-methyl-2-(8-propylimidazo[1,2-a]pyrazin-6-yl)-5-(4-(trifluoromethyl)phenyl)-5H-pyrrolo[2,3-d]pyrimidin-6(7H)-one]",–,B (Category B=SBP in SHRs 20-40 mmHg),–
99%,949 nM,"CCCc1nc(-c2nc(N)c3c(n2)NC(=O)C3(C)c2ccc(C(F)(F)F)cn2)cn2ccnc12 (stereo not drawn) [Example 132B, 4-amino-5-methyl-2-(8-propylimidazo[1,2-a]pyrazin-6-yl)-5-(5-(trifluoromethyl)pyridin-2-yl)-5H-pyrrolo[2,3-d]pyrimidin-6(7H)-one]",–,–,B (Category B=SBP in SHRs 20-40 mmHg)
118%,627 nM,"CC1(c2ccc(F)cc2)C(=O)Nc2nc(-c3cn4ccnc4cn3)nc(N)c21 (stereo not drawn) [Example 134A, 4-amino-5-(4-fluorophenyl)-2-(imidazo[1,2-a]pyrazin-6-yl)-5-methyl-5H-pyrrolo[2,3-d]pyrimidin-6(7H)one]",–,–,B (Category B=SBP in SHRs 20-40 mmHg)
148%,57 nM,"CC1(c2ccc(Br)cc2)C(=O)Nc2nc(-c3cn4ccnc4cn3)nc(N)c21 (stereo not drawn) [Example 135A, 4-amino-5-(4-bromophenyl)-2-(imidazo[1,2-a]pyrazin-6-yl)-5-methyl-5H-pyrrolo[2,3-d]pyrimidin-6(7H)-one]",–,B (Category B=SBP in SHRs 20-40 mmHg),–
129%,77 nM,"CC1(c2ccc(Cl)cc2F)C(=O)Nc2nc(-c3cn4ccnc4cn3)nc(N)c21 (stereo not drawn) [Example 136A, 4-amino-5-(4-chloro-2-fluorophenyl)-2-(imidazo[1,2-a]pyrazin-6-yl)-5-methyl-5H-pyrrolo[2,3-d]pyrimidin-6(7H)-one]",–,B (Category B=SBP in SHRs 20-40 mmHg),–
108%,135 nM,"Nc1nc(-c2cn3ccnc3cn2)nc2c1C(c1ccc(Cl)c(F)c1)(C1CC1)C(=O)N2 (stereo not drawn) [Example 137B, 4-amino-5-(4-chloro-3-fluorophenyl)-5-cyclopropyl-2-(imidazo[1,2-a]pyrazin-6-yl)-5H-pyrrolo[2,3-d]pyrimidin-6(7H)-one]",–,B (Category B=SBP in SHRs 20-40 mmHg),–
151%,369 nM,"CC1(c2ccc(Cl)c(Cl)c2)C(=O)Nc2nc(-c3cn4ccnc4cn3)nc(N)c21 (stereo not drawn) [Example 138A, 4-amino-5-(3,4-dichlorophenyl)-2-(imidazo[1,2-a]pyrazin-6-yl)-5-methyl-5H-pyrrolo[2,3-d]pyrimidin-6(7H)-one]",–,–,B (Category B=SBP in SHRs 20-40 mmHg)
